Consider 15 compounds from PubChem BioAssay (NCI).

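Step 1: Grow cells in 96-well plates. Step 2: Expose to compound for 48 hours at 5 concentrations. Step 3: Interpolate endpoints linearly; if unreached, use highest concentration. At the GI50, growth is halved. The concentration for full growth arrest is given as TGI.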 Where a SMILES comes first, the peptide text is derived from it. The star is where a group is joined. Cbz = O=C(OCc1ccccc1)*; NHNH2 = NN*

Some test systems named below: ACHN renal; CAKI-1 renal; CCRF-CEM leukemia; HCC-2998 colon; HT29 colon; IGROV1 ovarian; RXF 393 renal; SF-539 CNS; UACC-257 melanoma; MDA-MB-435.
Holding throughout (experiment): growth of human tumour cells (NCI), 48 h

As for `COc1ccc2c(c1)c(=O)c1c(NCCN(C)C)ccc3nnn2c31`, the TGI in the assay on ACHN renal was 14.6 µM; in the assay with CAKI-1 renal, 13.6 µM; in the assay with CCRF-CEM leukemia, 10.3 µM; with HCC-2998 colon, 17.8 µM; in the assay with HT29 colon, 12.3 µM; in the assay on IGROV1 ovarian, 17.4 µM. Besides, the TGI is 10.5 µM with RXF 393 renal, 15.9 µM with SF-539 CNS and 17 µM in the assay with UACC-257 melanoma.
In the case of `CC(CN(C)C)C(=O)c1ccccc1` (stereo unspecified), the TGI was more than 56.5 µM in the assay on ACHN renal; 15.6 µM with CAKI-1 renal; 27.2 µM in the assay on CCRF-CEM leukemia; 63 µM in the assay on HCC-2998 colon; 41.3 µM with HT29 colon; more than 100 µM in the assay with IGROV1 ovarian. Moreover, the TGI in the assay with RXF 393 renal is more than 54.2 µM; in the assay on SF-539 CNS, more than 100 µM; with UACC-257 melanoma, more than 84.7 µM.
Consider `O=C1CSC2=NC3=C(CSC/C3=C\c3ccccc3)C(c3ccccc3)N12` (stereo unspecified), for which the TGI in the assay with ACHN renal, in the assay with CCRF-CEM leukemia, with HCC-2998 colon, with HT29 colon, in the assay with IGROV1 ovarian and in the assay with MDA-MB-435 was more than 100 µM throughout. Further, the TGI in the assay with SF-539 CNS and in the assay on UACC-257 melanoma was more than 100 µM each time.
Consider `C#CC1(O)CCC2[C@@H]3CCc4cc(Oc5nc(F)nc(-c6c7ccccc7cn6C)n5)ccc4C3CC[C@@]21C` (stereo partly specified), for which the TGI in the assay with ACHN renal is more than 100 µM; in the assay with CAKI-1 renal, more than 100 µM; in the assay with CCRF-CEM leukemia, more than 67 µM; in the assay with HCC-2998 colon, more than 100 µM; in the assay on HT29 colon, more than 100 µM; with RXF 393 renal, more than 100 µM. Also, the TGI in the assay on SF-539 CNS and with UACC-257 melanoma was more than 100 µM throughout.
Turning to `COc1ccc(C2C3CCCC(C3=O)C(c3ccc(OC)cc3)N2N=O)cc1` (stereo unspecified), the TGI in the assay with CAKI-1 renal was more than 100 µM; with CCRF-CEM leukemia, more than 70.7 µM; with HCC-2998 colon, 59.6 µM; with HT29 colon, 51.2 µM; in the assay on IGROV1 ovarian it was 97.5 µM; with RXF 393 renal, 41.1 µM. The same compound registered a TGI in the assay on UACC-257 melanoma of 82.7 µM.
As for `O=C(OC/C=C1C=C(OC(=O)c2ccccc2)/C(=N/N(C(=O)c2ccccc2)c2ccccc2)O\1)c1ccccc1`, the TGI was 22.5 µM with ACHN renal; 13.7 µM with CAKI-1 renal; 2.1 µM in the assay on CCRF-CEM leukemia; 12.4 µM in the assay on HCC-2998 colon; 41.5 µM in the assay on HT29 colon; 13.3 µM in the assay on IGROV1 ovarian. Also, the TGI stood at 5.58 µM in the assay on RXF 393 renal and 19.7 µM in the assay on UACC-257 melanoma. Also, the GI50 in the assay on HT29 colon is 19.8 µM.
With `N#CCN(CC#N)C1CC=CCC1N(CC#N)CC#N` (stereo unspecified), the TGI in the assay on ACHN renal, in the assay on CAKI-1 renal, in the assay with CCRF-CEM leukemia, in the assay with HT29 colon, with IGROV1 ovarian and in the assay with MDA-MB-435 was more than 100 µM throughout. Further, the TGI in the assay on RXF 393 renal, with SF-539 CNS and with UACC-257 melanoma was more than 100 µM throughout.
As to `COc1ccc(C(=O)N/N=C/c2c(C)n(C)n(-c3ccccc3)c2=O)cc1`, the TGI in the assay with ACHN renal, in the assay with CCRF-CEM leukemia, with HCC-2998 colon, with HT29 colon, in the assay with IGROV1 ovarian and in the assay on RXF 393 renal was more than 100 µM throughout. For the same compound, the TGI in the assay with SF-539 CNS and with UACC-257 melanoma was more than 100 µM each time.
For the compound `CCCN1C(=O)/C(=C\c2ccc(OC)c(OC)c2)SC1=Nc1ccccc1`, the TGI in the assay on ACHN renal, in the assay with CAKI-1 renal, in the assay with CCRF-CEM leukemia, with HCC-2998 colon, in the assay with HT29 colon and with IGROV1 ovarian was more than 100 µM each time. Besides, the TGI in the assay with MDA-MB-435, in the assay on SF-539 CNS and in the assay with UACC-257 melanoma was more than 100 µM each time.
With `CC[C@H](C)C1=C(O)[N@+]2([O-])Oc3ccc(-c4c(O)c(O)c(-c5ccc(O)cc5)c(OC(C)=O)c4OC(C)=O)cc3O[C@]2([C@@H](C)CC)C(=O)N1O`, the TGI with ACHN renal is more than 50 µM; in the assay with CAKI-1 renal, more than 50 µM; in the assay with HT29 colon it was more than 50 µM; in the assay on IGROV1 ovarian, 28.2 µM; with MDA-MB-435, more than 50 µM; in the assay with RXF 393 renal, more than 50 µM. Further, the TGI in the assay with SF-539 CNS and in the assay on UACC-257 melanoma was more than 50 µM in each case.
For `O=C(Nc1sccc1S(=O)(=O)c1ccccc1)c1ccccc1`, the TGI in the assay with ACHN renal, with CAKI-1 renal, with HCC-2998 colon, with HT29 colon, in the assay on IGROV1 ovarian and in the assay with MDA-MB-435 was more than 100 µM each time. In addition, the TGI in the assay with SF-539 CNS and with UACC-257 melanoma was more than 100 µM each time.
For the compound `CCn1c2c(c3ccccc31)C(c1ccccc1)CC1C(=O)N(c3ccccc3)C(=O)C21` (stereo unspecified), the TGI in the assay with ACHN renal, in the assay with CAKI-1 renal, with CCRF-CEM leukemia, in the assay with HCC-2998 colon, in the assay on IGROV1 ovarian and in the assay with SF-539 CNS was more than 100 µM each time. This compound had a TGI with UACC-257 melanoma of more than 100 µM.
Regarding `CCOC(=O)CCC(NC(=O)OCc1ccccc1)C(=O)NC(CCC(=O)OCC)C(=O)NN` (stereo unspecified) (Cbz-Glu(OEt)-Glu(OEt)-NHNH2; configuration not given here), the TGI with ACHN renal, in the assay on HCC-2998 colon, with HT29 colon, with IGROV1 ovarian and with UACC-257 melanoma was more than 100 µM each time.
On to `COc1ccc2nc3n(c2c1)C(=O)c1ccccc1-3`, for which the TGI with ACHN renal, in the assay on CAKI-1 renal, with CCRF-CEM leukemia, with HCC-2998 colon, with HT29 colon and with IGROV1 ovarian was more than 100 µM each time. In addition, the TGI in the assay on RXF 393 renal, with SF-539 CNS and with UACC-257 melanoma was more than 100 µM throughout.
As for `CCCN(CCC)c1c([N+](=O)[O-])cc(C(=O)N(CCO)CCO)cc1[N+](=O)[O-]`, the TGI in the assay on ACHN renal, in the assay with CAKI-1 renal, with CCRF-CEM leukemia, in the assay with HCC-2998 colon, with HT29 colon and with IGROV1 ovarian was more than 100 µM in each case. For the same compound, the TGI in the assay with SF-539 CNS and in the assay on UACC-257 melanoma was more than 100 µM in each case.
